{"source": "patent US8034314B2", "about": "“Photoreactive compound specifically binding to calcium binding proteins” (priority 2004, dated 2011)", "system": "U-937 human monocytic cell line", "experiment": "STS-induced apoptotic cell death of U-937 cells (acridine orange/ethidium bromide staining)", "format": "cell-based", "conditions": "STS 1.25 μM, no AzRu", "description": "The U-937 human monocytic cell line was grown under an atmosphere of 95% air and 5% CO2 in RPMI 1640 supplemented with 10% fetal calf serum (FCS), 1 mM L-glutamine, 100 U/ml penicillin, and 100 μg/ml streptomycin. Cells were plated at a density of 5.4×10^4 cells/cm^2 in 24-well plates and then incubated with or without AzRu for 18 hr before exposure to 1.25 μM staurosporine (STS) to induce apoptosis. Cell viability was analyzed 5 and 7 hrs after STS addition by staining with 100 μg/ml acridine orange (AcOr) and 100 μg/ml ethidium bromide (EtBr) in PBS. The cells were then visualized by fluorescence microscopy (Olympus IX51) and images were recorded on an Olympus DP70 camera, using an SWB filter.\nAzRu had no effect on the viability of the cells that were not exposed to STS. In FIG. 13 A, U-937 cells were incubated without (a, c) or with AzRu (10 μM) (b,d) for 18 hrs and thereafter were exposed to STS (1.25 μM) (c and d). After five hours the cells were stained with acridine orange and ethidium bromide. Arrows indicate cells in early apoptotic state, represented as degraded nucleus, but with intact cell membrane (stained by acridine orange). Arrowheads indicate a late apoptotic state, as shown by the presence of a degraded nucleus (stained by both acridine orange and ethidium bromide). Scale bar, 20 μm. In FIG. 13 B, quantitative analysis of apoptotic cell death in control cells and cells exposed to AzRu was assessed 5 and 7 hr after their exposure to STS (1.25 by ANOVA and t-test. P<0.001 was considered statistically significant (***). Data are the means±SEM, n=3. In each independent experiment, approximately 200 cells were counted for each treatment."}
{"smiles": "CN[C@@H]1C[C@H]2O[C@@](C)([C@@H]1OC)n1c3ccccc3c3c4c(c5c6ccccc6n2c5c31)C(=O)NC4", "note": "[STS, staurosporine, reference compound]", "values": [{"measurement": "Apoptotic cell death (% of the cells)", "setting": "5 hrs exposure", "result": "about 42%"}, {"measurement": "Apoptotic cell death (% of the cells)", "setting": "7 hrs exposure", "result": "~76", "unit": "%"}]}
